In brackets after ≈: the same amount, converted by molar mass.
Columns and labels:
[1] = system: Staphylococcus epidermidis (SEPI 30593); assay: MIC by agar dilution, SEPI 30593; format: cell-based; conditions: Minimum Inhibitory Concentration, strain SEPI 30593; for MIC: Staphylococcus epidermidis
From the text: (§1) The oxazolidinone antibacterial agents of this invention have useful activity against a variety of organisms. The in vitro activity of compounds of this invention can be assessed by standard testing procedures such as the determination of minimum inhibitory concentration (MIC) by agar dilution as described in “Approved Standard. Methods for Dilution Antimicrobial Susceptibility Tests for Bacteria That Grow Aerobically”, 3rd. ed., published 1993 by the National Committee for Clinical Laboratory Standards, Villanova, Pa., USA. The activity of compounds of this invention against Staphylococcus aureus, Staphylococcus epidermidis, Streptococcus pneumoniae, Streptococcus pyogens, Enterococcus faecalis, Moraxella catarrhalis and H. influenzae is shown in Table 1.

[2] = system: Enterococcus faecalis (EFAE 12712); assay: MIC by agar dilution, EFAE 12712; format: cell-based; conditions: Minimum Inhibitory Concentration, strain EFAE 12712; for MIC: Enterococcus faecalis
From the text: as §1

[3] = system: H. influenzae (HINF 30063); assay: MIC by agar dilution, HINF 30063; format: cell-based; conditions: Minimum Inhibitory Concentration, strain HINF 30063; for MIC: Haemophilus influenzae
From the text: as §1

[4] = system: Enterococcus faecalis (EFAE 9217); assay: MIC by agar dilution, EFAE 9217; format: cell-based; conditions: Minimum Inhibitory Concentration, strain EFAE 9217; for MIC: Enterococcus faecalis
From the text: as §1

[5] = system: Moraxella catarrhalis (MCAT 30607); assay: MIC by agar dilution, MCAT 30607; format: cell-based; conditions: Minimum Inhibitory Concentration, strain MCAT 30607; for MIC: Moraxella catarrhalis
From the text: as §1

[6] = system: Staphylococcus aureus (SAUR 9213); assay: MIC by agar dilution, SAUR 9213; format: cell-based; conditions: Minimum Inhibitory Concentration, strain SAUR 9213; for MIC: Staphylococcus aureus
From the text: as §1

[7] = system: Streptococcus pyogens (SPYO 152); assay: MIC by agar dilution, SPYO 152; format: cell-based; conditions: Minimum Inhibitory Concentration, strain SPYO 152; for MIC: Streptococcus
From the text: as §1

[8] = system: Streptococcus pneumoniae (SPNE 9912); assay: MIC by agar dilution, SPNE 9912; format: cell-based; conditions: Minimum Inhibitory Concentration, strain SPNE 9912; for MIC: Streptococcus pneumoniae
From the text: as §1

Molecule | MIC [1] [µg/mL] | MIC [2] [µg/mL] | MIC [3] [µg/mL] | MIC [4] [µg/mL] | MIC [5] [µg/mL] | MIC [6] [µg/mL] | MIC [7] [µg/mL] | MIC [8] [µg/mL] | melting point | SEPI 30593 MIC [1] [µg/mL] | EFAE 12712 MIC [2] [µg/mL] | HINF 30063 MIC [3] [µg/mL] | EFAE 9217 MIC [4] [µg/mL] | MCAT 30607 MIC [5] [µg/mL] | SAUR 9213 MIC [6] [µg/mL] | SPYO 152 MIC [7] [µg/mL] | SPNE 9912 MIC [8]
CCC(=S)NC[C@H]1CN(c2ccc(N3CCN(C(=O)CSC)CC3)c(F)c2)C(=O)O1 [EX 2, N-{[(5S)-3-(3-fluoro-4-{4-[2-(methylsulfanyl)acetyl]-1-piperazinyl}phenyl)-2-oxo-1,3-oxazolidin-5-yl]methyl}propanethioamide] | 1 (≈ 2.2 µM) | 1 (≈ 2.2 µM) | > 64 | 1 (≈ 2.2 µM) | 4 (≈ 8.8 µM) | 2 (≈ 4.4 µM) | 1 (≈ 2.2 µM) | < 0.5 |  |  |  |  |  |  |  |  | 
CCC(=S)NC[C@H]1CN(c2ccc(N3CCN(C(=O)CS(C)(=O)=O)CC3)c(F)c2)C(=O)O1 [EX 3, N-{ [(5S)-3-(3-fluoro-4-{4-[2-(methylsulfonyl)acetyl]-1-5 piperazinyl}phenyl]-2-oxo-1,3-oxazolidin-5-yl]methyl}propanethioamide] | 0.5 (≈ 1.03 µM) | 1 (≈ 2.06 µM) | 8 (≈ 16.4 µM) | 0.5 (≈ 1.03 µM) | 2 (≈ 4.11 µM) | 2 (≈ 4.11 µM) | 0.5 (≈ 1.03 µM) | 0.25 (≈ 0.514 µM) |  |  |  |  |  |  |  |  | 
CCC(=S)NC[C@H]1CN(c2ccc(N3CCN(C(C)=S)CC3)c(F)c2)C(=O)O1 [EX 4, N-({(5S)-3-[4-(4-ethanethiolyl-1-piperazinyl)-3-fluorophenyl]2-oxo-1,3-oxazolidin-5-yl}methyl)propanethioamide] | 0.25 (≈ 0.589 µM) | 0.5 (≈ 1.18 µM) | 1 (≈ 2.36 µM) | 0.5 (≈ 1.18 µM) | 1 (≈ 2.36 µM) | 0.5 (≈ 1.18 µM) | 0.125 (≈ 0.294 µM) | 0.125 (≈ 0.294 µM) | 209 to 210 °C |  |  |  |  |  |  |  | 
CCC(=S)NC[C@H]1CN(c2ccc(N3CCN(C#N)CC3)c(F)c2)C(=O)O1 [EX 5, N-({(5S)-3-[4-(4-cyano-1-piperazinyl)-3-fluorophenyl]-2-oxo-1,3-oxazolidin-5-yl}methyl)propanethioamide] | 0.25 (≈ 0.639 µM) | 0.25 (≈ 0.639 µM) | 2 (≈ 5.11 µM) | 0.25 (≈ 0.639 µM) | 1 (≈ 2.55 µM) | 0.25 (≈ 0.639 µM) | 0.125 (≈ 0.319 µM) | 0.125 (≈ 0.319 µM) | 182 to 184 °C |  |  |  |  |  |  |  | 
CCC(=S)NC[C@H]1CN(c2ccc(N3CCN(C(=O)COC(=O)OCCOC)CC3)c(F)c2)C(=O)O1 [EX 7, N-({(5S)-3-(3-fuoro-4-{4-[2-[(2-methoxyethoxy)carbonyloxy]acetyl]-1-piperazinyl}phenyl)-2-oxo-1,3-oxazolidin-5-yl}methyl) propanethioamide] | 1 (≈ 1.9 µM) | 2 (≈ 3.8 µM) | 4 (≈ 7.6 µM) | 2 (≈ 3.8 µM) | 4 (≈ 7.6 µM) | 2 (≈ 3.8 µM) | 0.25 (≈ 0.475 µM) | 0.25 (≈ 0.475 µM) | 150 to 151 °C |  |  |  |  |  |  |  | 
CCC(=S)NC[C@H]1CN(c2ccc(N3CCN(C(=O)[C@@H](O)COC)CC3)c(F)c2)C(=O)O1 [EX 8, N-[((5S)-3-{3-fluoro-4-[4-((2S)-2-hydroxy-3-methoxypropanoyl)-1-piperazinyl]phenyl}-2-oxo-1,3-oxazolidin-5-yl)methyl]propanethioamide] | 1 (≈ 2.13 µM) | 2 (≈ 4.27 µM) | 16 (≈ 34.1 µM) | 1 (≈ 2.13 µM) | 2 (≈ 4.27 µM) | 2 (≈ 4.27 µM) | 0.5 (≈ 1.07 µM) | 0.5 (≈ 1.07 µM) | 190 to 191 °C (dec.) |  |  |  |  |  |  |  | 
CCC(=S)NC[C@H]1CN(c2ccc(N3CCN(C(=O)[C@H](COC)OC)CC3)c(F)c2)C(=O)O1 [EX 9, N-[((5S)-3-{3-fluoro-4-[4-((2S)-2,3-dimethyoxypropanoyl)-1-piperazinyl]phenyl}-2-oxo-1,3-oxazolidin-5-yl)methyl]propanethioamide] |  |  |  |  |  |  |  |  |  | 2 | 4 | 32 | 2 | 4 | 4 | 1 | 1 µg/mL
CCC(=S)NC[C@H]1CN(c2ccc(N3CCN(C(=O)C(CO)OC)CC3)c(F)c2)C(=O)O1 (stereo partly drawn) [EX 10, N-[((5S)-3-{3-fluoro-4-[4-((2S)-3-hydroxy-2-methyoxypropanoyl)-1-piperazinyl]phenyl}-2-oxo-1,3-oxazolidin-5-yl)methyl]propanethioamide] | 2 (≈ 4.27 µM) | 2 (≈ 4.27 µM) | 16 (≈ 34.1 µM) | 1 (≈ 2.13 µM) | 4 (≈ 8.54 µM) | 4 (≈ 8.54 µM) | 1 (≈ 2.13 µM) | 1 (≈ 2.13 µM) |  |  |  |  |  |  |  |  | 
CCC(=S)NC[C@H]1CN(c2ccc(N3CCN(C(=O)C(C)=O)CC3)c(F)c2)C(=O)O1 [EX 12, N-({(5S)-3-[3-fluoro-4-(4-pyruvoyl-1-piperazinyl)phenyl]-2-oxo-1,3-oxazolidin-5-yl}methyl)propanethioamide] | 1 (≈ 2.29 µM) | 1 (≈ 2.29 µM) | 8 (≈ 18.3 µM) | 1 (≈ 2.29 µM) | 2 (≈ 4.58 µM) | 2 (≈ 4.58 µM) | 0.5 (≈ 1.15 µM) | 0.5 (≈ 1.15 µM) | 173 to 175 °C (dec.) |  |  |  |  |  |  |  | 
CCC(=S)NC[C@H]1CN(c2ccc(N3CCN(C(=O)CCO)CC3)c(F)c2)C(=O)O1 [EX 13] | 1 (≈ 2.28 µM) | 1 (≈ 2.28 µM) | 8 (≈ 18.2 µM) | 1 (≈ 2.28 µM) | 2 (≈ 4.56 µM) | 2 (≈ 4.56 µM) | 0.5 (≈ 1.14 µM) | 0.5 (≈ 1.14 µM) |  |  |  |  |  |  |  |  | 
CCC(=S)NC[C@H]1CN(c2ccc(N3CCN(C(=O)C(C)(CO)CO)CC3)c(F)c2)C(=O)O1 [EX 18, N-{[(5S)-3-(3-fluoro-4-{4-[3-hydroxy-2-(hydroxymethyl)-2-mnethylpropanoyl]-1-piperazinyl}phenyl)-2-oxo-1,3-oxazolidin-5-yl]methyl}propanethioamide] |  |  |  |  |  |  |  |  |  | 1 | 2 | 32 | 2 | 4 | 4 | 1 | 0.5 µg/mL
CCC(=S)NC[C@H]1CN(c2ccc(N3CCN(C(=O)[C@H](O)c4ccccc4)CC3)c(F)c2)C(=O)O1 [EX 21, N-[((5S)-3-{3-fluoro-4-[4-((2R)-2-hydroxy-2-phenylacetyl)-1-piperazinyl]phenyl}-2-oxo-1,3-oxazolidin-5-yl)methyl]propanethioamide] | 1 (≈ 2 µM) | 2 (≈ 4 µM) | 64 (≈ 128 µM) | 2 (≈ 4 µM) | 4 (≈ 7.99 µM) | 4 (≈ 7.99 µM) | 2 (≈ 4 µM) | 1 (≈ 2 µM) |  |  |  |  |  |  |  |  | 
CCC(=S)NC[C@H]1CN(c2ccc(N3CCN(C(=O)[C@@H](OC(C)=O)c4ccccc4)CC3)c(F)c2)C(=O)O1 [EX 22, N-[((5S)-3-{3-fluoro-4-[4-((2S)-2-acetoxy-2-phenylacetyl)-1-piperazinyl]phenyl}-2-oxo-1,3-oxazolidin-5-yl)methyl]propanethioamide] | 4 (≈ 7.37 µM) | 4 (≈ 7.37 µM) | > 64 | 4 (≈ 7.37 µM) | 8 (≈ 14.7 µM) | 8 (≈ 14.7 µM) | 4 (≈ 7.37 µM) | 2 (≈ 3.69 µM) |  |  |  |  |  |  |  |  | 
N{[(5S)-3-(3-fluoro-4-{4-[2-(methylsulfinyl)acetyl]-1-piperazinyl}phenyl)-2-oxo-1,3-oxazolidin-5-yl]methyl }propanethioamide [EX 1] |  |  |  |  |  |  |  |  |  | 1 | 2 | 8 | 1 | 8 | 4 | 2 | .05 µg/mL

Reference: patent US6642238B2, “Oxazolidinone thioamides with piperazine amide substituents” (Pharmacia and Upjohn Company, priority 2000, dated 2003)
